Values joined by “and” are separate entries in the source; they are usually repeats but may differ in a detail not shown here. Equal entries are not always repeated.

For one test, the system named is peroxidase. Kind of test: Peroxidase assay in saliva (Amplex Red). As to conditions: compound prepared at 500 ppm, 30 minutes, FIGS. 26-29. It counts as biochemical. As for the experimental part: To determine the effect of various GRAS compounds as inhibitors of peroxidase activity, a standard assay using Amplex® Red (Life Technologies), which releases a fluorescent oxidation product.
The test compounds, such as GRAS materials or cocktails of same, were prepared at a concentration of 500 ppm in distilled water. For the assay, 50 μl samples of test compounds were mixed with 20-30 μl of saliva (either “pooled” or “unpooled”) prior to the addition of Amplex® Red. […] Reactions were allowed to run for 30 minutes during these assays.

In a further test the target is T1, α-amylase (Homo sapiens, UniProt P0DUB6).
T1 sequence (P0DUB6 16-511): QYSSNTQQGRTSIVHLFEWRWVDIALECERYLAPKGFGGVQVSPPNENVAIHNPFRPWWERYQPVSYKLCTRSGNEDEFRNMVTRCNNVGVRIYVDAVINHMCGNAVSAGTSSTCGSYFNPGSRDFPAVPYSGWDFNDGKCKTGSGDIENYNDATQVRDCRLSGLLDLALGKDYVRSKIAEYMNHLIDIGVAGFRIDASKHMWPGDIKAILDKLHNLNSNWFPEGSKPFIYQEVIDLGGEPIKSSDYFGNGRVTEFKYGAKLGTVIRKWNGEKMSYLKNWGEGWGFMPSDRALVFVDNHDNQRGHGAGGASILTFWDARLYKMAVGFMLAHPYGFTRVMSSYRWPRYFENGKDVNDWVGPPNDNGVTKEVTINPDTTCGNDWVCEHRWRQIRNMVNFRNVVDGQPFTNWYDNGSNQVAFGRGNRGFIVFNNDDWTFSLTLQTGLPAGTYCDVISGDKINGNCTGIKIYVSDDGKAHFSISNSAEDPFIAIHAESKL
Description: α-Amylase inhibition saliva screening (chromogenic substrate, absorbance 405 nm). It counts as biochemical. The following applies: test compound prepared at 5,000 ppm, 37° C.; for absorbance at 405 nm, single readings: four replicate readings. The text has this: Further details of these five compounds may also be seen in Table 4.

For a further test, the system named is protease. As to conditions: natural protease inhibitors from food; cited from earlier work.

`Cn1c(=O)c2c(ncn2C)n(C)c1=O` [CDI #33, Caffeine]: in the test with peroxidase, the peroxidase inhibition result was “significant peroxidase inhibition capabilities”.

Take `COc1ccc(O)c(C(C)(C)C)c1` [CDI-039, 3-tert--butyl-hydroxyanisole]: the peroxidase inhibition entry in the test with peroxidase was “significant peroxidase inhibition capabilities”.

Consider “Aluminum potassium sulfate dodecahydrate [CDI-42]”, for which the peroxidase inhibition result in the test on peroxidase was “significant peroxidase inhibition capabilities”. Besides, the “Ave (absorbance at 405 nm)” value on α-amylase (0 min) worked out at 0.92. For the same molecule, the “absorbance at 405 nm, single readings” value is 0.80 and 1.13 and 0.90 and 0.84 on α-amylase (0 min); 1.65 and 2.15 and 1.80 and 1.81 on α-amylase (5 min); 2.37 and 2.38 and 2.25 and 2.17 on α-amylase (15 min).

Regarding Aluminum sulfate hydrate [CDI-34], the “Ave (absorbance at 405 nm)” value amounted to 0.40 on α-amylase (0 min), 0.50 on α-amylase (5 min) and 0.56 on α-amylase (15 min). Also, the “absorbance at 405 nm, single readings” value at α-amylase (0 min, sulfate hydrate) was 0.40 (2×) and 0.36 and 0.45; at α-amylase (5 min, sulfate hydrate), 0.49 and 0.50 (2×) and 0.52; on α-amylase (15 min, sulfate hydrate) it was 0.53 and 0.61 and 0.54 and 0.56.

B1: Soybeans: primary soybean protease inhibitor, 20.7-22.3 kDa (protein, UniProt P01070 25-205, looked up)
Trypsin inhibitor A: DFVLDNEGNPLENGGTYYILSDITAFGGIRAAPTGNERCPLTVVQSRNELDKGIGTIISSPYRIRFIAEGHPLSLKFDSFAVIMLCVGIPTEWSVVEDLPEGPAVKIGENKDAMDGWFRLERVSDDEFNNYKLVFCPQQAEDDKCGDIGISIDHDDGTRRLVVSKNKPLVVQFQKLDKESL
For the molecule B1, the Inhibitory power in the test with protease is listed as 1.2 times times weight.

Values taken from patent US8318105B2, “Systems and methods for biomarker analysis” (priority 2010, dated 2012).
